Reference: paper PMC3876054, “Tyrosol and Its Analogues Inhibit Alpha-Melanocyte-Stimulating Hormone Induced Melanogenesis” (International Journal of Molecular Sciences, 2013)

Assays:
mushroom tyrosinase [1] = target: T1, mushroom tyrosinase (Agaricus bisporus, UniProt C7FF04); experiment: spectrophotometric dopachrome assay with L-tyrosine; % inhibition at […]; assay type: biochemical; conditions: read-out: % inhibition at 4 mM
T1 construct: gene PPO3

mushroom tyrosinase [2] = target: T1, mushroom tyrosinase; experiment: as above; assay type: biochemical; conditions: read-out: % inhibition at 0.4 mM

T1 sequence (C7FF04 2-392): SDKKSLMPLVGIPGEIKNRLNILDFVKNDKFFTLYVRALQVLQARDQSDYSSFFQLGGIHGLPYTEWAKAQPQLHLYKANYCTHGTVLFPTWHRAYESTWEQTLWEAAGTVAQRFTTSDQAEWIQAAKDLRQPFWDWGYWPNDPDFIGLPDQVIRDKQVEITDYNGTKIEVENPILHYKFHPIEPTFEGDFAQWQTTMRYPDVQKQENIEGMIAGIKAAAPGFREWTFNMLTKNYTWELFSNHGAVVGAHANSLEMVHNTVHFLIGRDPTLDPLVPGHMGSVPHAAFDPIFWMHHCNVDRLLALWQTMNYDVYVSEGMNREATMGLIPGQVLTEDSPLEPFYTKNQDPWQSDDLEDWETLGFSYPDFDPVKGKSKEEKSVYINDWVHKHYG

| Compound | inhibition at 4000 µM (mushroom tyrosinase [1]) [%] | inhibition at 400 µM (mushroom tyrosinase [2]) [%] |
| --- | --- | --- |
| OCCc1cccc(O)c1 [compound 2, 2-(3-hydroxyphenyl)ethanol] | 45.3 | – |
| OC[C@H]1O[C@@H](OCCc2ccc(O)cc2)[C@H](O)[C@@H](O)[C@@H]1O [compound 11, salidroside] | – | 22.2 |
| Cc1ccc(CCO)cc1 [compound 10, 2-(4-methylphenyl)ethanol] | 46.7 | – |
| OCCc1ccc(O)cc1 [compound 1, tyrosol] | 42.5 | – |
